Experimental data as given in ChEMBL document CHEMBL4387723, “Ultrasonication-ionic liquid synergy for the synthesis of new potent anti-tuberculosis 1,2,4-triazol-1-yl-pyrazole based spirooxindolopyrrolizidines” (Bioorg Med Chem Lett, 2019).
Converted amounts (≈) assume the structure as drawn.

Legend:
[1] = tested on: Mycobacterium tuberculosis; experiment: Potency index, ratio of ethambutol MIC to test compound MIC for antitubercular activity against Mycobacterium tuberculosis H37Rv incubated for […] by microplate alamar blue assay; type: functional
[2] = tested on: Mycobacterium tuberculosis; experiment: Antitubercular activity against Mycobacterium tuberculosis H37Rv incubated for 7 days by microplate alamar blue assay; type: functional; conditions: 168 h
[3] = Cytotoxicity against mouse RAW264.7 cells assessed as reduction in cell viability at 25 ug/ml incubated for 48 hrs by MTT assay relative to control; type: cell-based; conditions: read-out: INH

Structure (SMILES)	Ratio [1]	MIC [2]	cytotoxicity at 48 h, 25 ug/ml [3]
Cc1nn(-c2ccccc2)c(-n2cncn2)c1C1C2CCCN2C2(C(=O)Nc3ccc(Cl)cc32)C1C(=O)c1ccccc1 (stereo unspecified)	>1	0.78 µg/mL (≈ 1.32 µM)	19.8%
COc1ccc(C(=O)C2C(c3c(C)nn(-c4ccccc4)c3-n3cncn3)C3CCCN3C23C(=O)Nc2ccccc23)cc1 (stereo unspecified)		12.5 µg/mL (≈ 21.3 µM)	
Cc1nn(-c2ccccc2)c(-n2cncn2)c1C1C2CCCN2C2(C(=O)Nc3ccccc32)C1C(=O)c1ccccc1 (stereo unspecified)		> 25 µg/mL	
Cc1nn(-c2ccccc2)c(-n2cncn2)c1C1C2CCCN2C2(C(=O)Nc3ccccc32)C1C(=O)c1ccc(Br)cc1 (stereo unspecified)		1.56 µg/mL (≈ 2.46 µM)	27.1%
Cc1nn(-c2ccccc2)c(-n2cncn2)c1C1C2CCCN2C2(C(=O)Nc3ccc(Br)cc32)C1C(=O)c1ccc(Cl)cc1 (stereo unspecified)		1.56 µg/mL (≈ 2.33 µM)	22.4%
Cc1nn(-c2ccccc2)c(-n2cncn2)c1C1C2CCCN2C2(C(=O)Nc3ccc(Cl)cc32)C1C(=O)c1ccc([N+](=O)[O-])cc1 (stereo unspecified)		1.56 µg/mL (≈ 2.46 µM)	24.9%
Cc1nn(-c2ccccc2)c(-n2cncn2)c1C1C2CCCN2C2(C(=O)Nc3ccc(Cl)cc32)C1C(=O)c1cccc([N+](=O)[O-])c1 (stereo unspecified)		6.25 µg/mL (≈ 9.84 µM)	19%
Cc1nn(-c2ccccc2)c(-n2cncn2)c1C1C2CCCN2C2(C(=O)Nc3ccc(Br)cc32)C1C(=O)c1ccc([N+](=O)[O-])cc1 (stereo unspecified)		6.25 µg/mL (≈ 9.2 µM)	26.4%
Cc1nn(-c2ccccc2)c(-n2cncn2)c1C1C2CCCN2C2(C(=O)Nc3ccccc32)C1C(=O)c1ccc(Cl)cc1 (stereo unspecified)		6.25 µg/mL (≈ 10.6 µM)	16.9%
Cc1nn(-c2ccccc2)c(-n2cncn2)c1C1C2CCCN2C2(C(=O)Nc3ccccc32)C1C(=O)c1cccc([N+](=O)[O-])c1 (stereo unspecified)		> 25 µg/mL	
Cc1nn(-c2ccccc2)c(-n2cncn2)c1C1C2CCCN2C2(C(=O)Nc3ccc(Br)cc32)C1C(=O)c1cccc([N+](=O)[O-])c1 (stereo unspecified)		6.25 µg/mL (≈ 9.2 µM)	20.1%
COc1ccc(C(=O)C2C(c3c(C)nn(-c4ccccc4)c3-n3cncn3)C3CCCN3C23C(=O)Nc2ccc(Br)cc23)cc1 (stereo unspecified)		25 µg/mL (≈ 37.6 µM)	
Cc1nn(-c2ccccc2)c(-n2cncn2)c1C1C2CCCN2C2(C(=O)Nc3ccc(Cl)cc32)C1C(=O)c1ccc(Cl)cc1 (stereo unspecified)		1.56 µg/mL (≈ 2.5 µM)	17.9%
Cc1nn(-c2ccccc2)c(-n2cncn2)c1C1C2CCCN2C2(C(=O)Nc3ccc(Br)cc32)C1C(=O)c1ccccc1 (stereo unspecified)		3.12 µg/mL (≈ 4.92 µM)	18.6%
Cc1nn(-c2ccccc2)c(-n2cncn2)c1C1C2CCCN2C2(C(=O)Nc3ccc(Br)cc32)C1C(=O)c1ccc(Br)cc1 (stereo unspecified)		1.56 µg/mL (≈ 2.19 µM)	22%
Cc1ccc(C(=O)C2C(c3c(C)nn(-c4ccccc4)c3-n3cncn3)C3CCCN3C23C(=O)Nc2ccccc23)cc1 (stereo unspecified)		> 25 µg/mL	
Cc1nn(-c2ccccc2)c(-n2cncn2)c1C1C2CCCN2C2(C(=O)Nc3ccccc32)C1C(=O)c1ccc([N+](=O)[O-])cc1 (stereo unspecified)		6.25 µg/mL (≈ 10.4 µM)	29.6%
COc1ccc(C(=O)C2C(c3c(C)nn(-c4ccccc4)c3-n3cncn3)C3CCCN3C23C(=O)Nc2ccc(Cl)cc23)cc1 (stereo unspecified)		3.12 µg/mL (≈ 5.03 µM)	21.6%
Cc1ccc(C(=O)C2C(c3c(C)nn(-c4ccccc4)c3-n3cncn3)C3CCCN3C23C(=O)Nc2ccc(Cl)cc23)cc1 (stereo unspecified)		25 µg/mL (≈ 41.4 µM)	
Cc1nn(-c2ccccc2)c(-n2cncn2)c1C1C2CCCN2C2(C(=O)Nc3ccc(Cl)cc32)C1C(=O)c1ccc(Br)cc1 (stereo unspecified)		1.56 µg/mL (≈ 2.33 µM)	26.4%
CC[C@@H](CO)NCCN[C@@H](CC)CO [ETHAMBUTOL]		1.56 µg/mL (≈ 7.64 µM)	
